Results reported in US20140031275A1, “METHODS OF ERADICATING BACTERIAL CELL POPULATIONS” (priority 2011, published 2014).

Columns and labels:
[1] = tested on: S. aureus; assay: MIC against S. aureus; assay type: cell-based
Description: (§1) Referring to FIG. 1, antibiotic action against stationary state S. aureus. SA113, an MSSA commonly used as a S. aureus model strain, was evaluated. S. aureus SA113 was grown in Mueller-Hinton broth for 24 hours. Antibiotics were added at day 0. Time-points were taken every 24 hours. 100 μl of culture was removed, centrifuged for one minute, and the cells were resuspended in PBS. Serial dilutions from neat to 10^−6 were spotted on MHA plates and incubated overnight at 37° C. The results shown in FIG. 1 are the averages of three independent experiments.

[2] = tested on: stationary state S. aureus SA113; assay: Antibiotic action against stationary state S. aureus SA113 (MSSA), cfu counts; assay type: cell-based; conditions: for effect on stationary population of S. aureus cells: antibiotic alone, 5-day incubation, FIG. 1
Description: FIG. 1 is a graph showing antibiotic action against stationary state S. aureus. SA113.
as §1

[3] = tested on: stationary S. aureus; conditions: high concentrations (24 μg/ml); sterilization not reported; cited from earlier work
[4] = from literature, healthy volunteers; cited from earlier work
[5] = tested on: stationary MRSA 37 culture; assay type: cell-based, S. aureus
Description: Black line represents the limit of detection
The ability of ADEP 10c to kill an S. aureus MRSA strain was also evaluated.
(§2) Resistance to methicillin and oxacillin is the hallmark of MRSA.

[6] = tested on: MRSA strain; assay: Oxacillin MIC of MRSA strain; assay type: cell-based, S. aureus; conditions: Staphylococcus aureus
Source text: as §2

## L-proline, 3-fluoro-N-[(2E)-1-oxo-2-hepten-1-yl]-L-phenylalanyl-L-seryl-L-prolyl-(2S)-4-methyl-2-piperidinecarbonyl-L-alanyl-, (6→2)-lactone [ADEP 10c]
[1]; S. aureus
  MIC: 5 µg/mL
[1]; tested with a variety of MSSA and MRSA isolates
  MIC: 5 µg/mL
[2]
  cell numbers of the stationary population: about 10^4 per ml
  killing of stationary cells, ADEP 10c compared with ADEP 4: more efficacious at killing stationary cells

## CCCCCCCCCC(=O)N[C@@H](Cc1c[nH]c2ccccc12)C(=O)N[C@H](CC(N)=O)C(=O)N[C@@H](CC(=O)O)C(=O)N[C@@H]1C(=O)NCC(=O)N[C@@H](CCCN)C(=O)N[C@@H](CC(=O)O)C(=O)N[C@H](C)C(=O)N[C@@H](CC(=O)O)C(=O)NCC(=O)N[C@H](CO)C(=O)N[C@@H]([C@H](C)CC(=O)O)C(=O)N[C@@H](CC(=O)c2ccccc2N)C(=O)O[C@@H]1C [Daptomycin]
[3]
  activity against stationary S. aureus: some activity

## CC(=O)NC[C@H]1CN(c2ccc(N3CCOCC3)c(F)c2)C(=O)O1 [linezolid]
[4]
  clinically achievable concentrations: 14.5 µg/mL
[2]
  effect on stationary population of S. aureus cells: little effect

## O=C(O)c1cn(C2CC2)c2cc(N3CCNCC3)c(F)cc2c1=O [ciprofloxacin]
[2]
  effect on stationary population of S. aureus cells: little effect

## Cc1onc(-c2ccccc2)c1C(=O)N[C@@H]1C(=O)N2[C@@H]1SC(C)(C)[C@@H]2C(=O)O [oxacillin]
[4]
  clinically achievable concentrations: 16 µg/mL
[5]
  killing of clpP mutants of MRSA: killed clpP mutants of MRSA
[5]; oxacillin alone
  killing of stationary MRSA cells: no effect
[6]
  MIC: > 75 µg/mL
[2]
  effect on stationary population of S. aureus cells: little effect

## CO[C@H]1/C=C/O[C@@]2(C)Oc3c(C)c(O)c4c(O)c(c(/C=N/N5CCN(C)CC5)c(O)c4c3C2=O)NC(=O)/C(C)=C\C=C\[C@H](C)[C@H](O)[C@@H](C)[C@@H](O)[C@@H](C)[C@H](OC(C)=O)[C@@H]1C [rifampicin]
[4]
  clinically achievable concentrations: 7.2 µg/mL
